Laboratory results published in patent US7973061B2, “Anaplastic lymphoma kinase modulators and methods of use” (Exelixis, Inc., priority 2004, dated 2011).
pIC50: −log10 of the molar value.

The compounds below were run against T1, ALK (baculovirus expressed human ALK kinase domain F1098-K1410) (Homo sapiens, UniProt Q9UM73) (assay: biochemical). Conditions: not given.
T1 construct: human ALK kinase domain F1098-K1410; made in house
How it was run: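 Inhibitors were tested at 10 concentrations, and IC50 was derived from a sigmoidal fit (Min, Max, Hill slope). Kinase activity was measured as percent ATP left after a 2 h reaction at room temperature, detected by luciferase-luciferin chemiluminescence. The ATP level was set close to KM for the ALK kinase domain F1098-K1410.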

T1 sequence (Q9UM73 1098-1410): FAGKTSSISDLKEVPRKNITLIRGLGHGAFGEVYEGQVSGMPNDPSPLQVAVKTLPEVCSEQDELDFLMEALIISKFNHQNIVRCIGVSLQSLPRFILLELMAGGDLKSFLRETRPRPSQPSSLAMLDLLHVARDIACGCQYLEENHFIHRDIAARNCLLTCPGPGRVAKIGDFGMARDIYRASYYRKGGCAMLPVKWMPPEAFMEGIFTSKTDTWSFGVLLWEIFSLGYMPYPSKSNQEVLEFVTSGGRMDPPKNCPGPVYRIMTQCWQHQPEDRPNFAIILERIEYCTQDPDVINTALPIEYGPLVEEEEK

pIC50	SMILES
6.30 to 7.30	O=C(COc1ccc(OC(F)(F)F)cc1)NCc1nc(C(=O)NCCOc2ccccc2)cs1 [Entry 122, N-[2-(phenyloxy)ethyl]-2-({[({4-[(trifluoromethyl)oxy]phenyl}oxy)acetyl]amino}methyl)-1,3-thiazole-4-carboxamide]

Same assay, conditions: 1 μM ATP, 4 μM poly-AEKY, 12 nM ALK, 2 hours at ambient temperature; read-out: ALK IC50

pIC50	SMILES
6.30 to 7.30	O=C(COc1ccc(OC(F)(F)F)cc1)NCc1nc(C(=O)N[C@@H](Cc2ccccc2)C(=O)N2CCCC2)cs1 [Entry 91, N-[(1S)-2-oxo-1-(phenylmethyl)-2-pyrrolidin-1-ylethyl]-2-({[({4-[(trifluoromethyl)oxy]phenyl}oxy)acetyl]amino}methyl)-1,3-thiazole-4-carboxamide]
6.30 to 7.30	NS(=O)(=O)c1ccc(CCNC(=O)c2coc(CNC(=O)COc3ccc(OC(F)(F)F)cc3)n2)cc1 [Entry 92, N-{2-[4-(aminosulfonyl)phenyl]ethyl}-2-({[({4-[(trifluoromethyl)oxy]phenyl}oxy)acetyl]amino}methyl)-1,3-oxazole-4-carboxamide]
6.30 to 7.30	O=C(COc1ccc(OC(F)(F)F)cc1)NCc1nc(C(=O)NCCSCc2c(Cl)cccc2Cl)cs1 [Entry 93, N-(2-{[(2,6-dichlorophenyl)methyl]thio}ethyl)-2-({[({4-[(trifluoromethyl)oxy]phenyl}oxy)acetyl]amino}methyl)-1,3-thiazole-4-carboxamide]
6.30 to 7.30	CC(C)CNC(=O)c1csc(CNC(=O)COc2ccc(OC(F)(F)F)cc2)n1 [Entry 94, N-(2-methylpropyl)-2-({[({4-[(trifluoromethyl)oxy]phenyl}oxy)acetyl]amino}methyl)-1,3-thiazole-4-carboxamide]
6.30 to 7.30	C[C@H](NC(=O)c1csc(CNC(=O)COc2ccc(OC(F)(F)F)cc2)n1)C1CCCCC1 [Entry 95, N-[(1S)-1-cyclohexylethyl]-2-({[({4-[(trifluoromethyl)oxy]phenyl}oxy)acetyl]amino}methyl)-1,3-thiazole-4-carboxamide]
6.30 to 7.30	O=C(COc1ccc(OC(F)(F)F)cc1)NCc1nc(C(=O)N2CCc3c([nH]c4ccccc34)C2)cs1 [Entry 96, N-{[4-(1,3,4,9-tetrahydro-2H-beta-carbolin-2-ylcarbonyl)-1,3-thiazol-2-yl]methyl}-2-({4-[(trifluoromethyl)oxy]phenyl}oxy)acetamide]
6.30 to 7.30	O=C(COc1ccc(OC(F)(F)F)cc1)NCc1nc(C(=O)NCc2cc(C(F)(F)F)ccc2Cl)cs1 [Entry 97, N-{[2-chloro-5-(trifluoromethyl)phenyl]methyl}-2-({[({4-[(trifluoromethyl)oxy]phenyl}oxy)acetyl]amino}methyl)-1,3-thiazole-4-carboxamide]
6.30 to 7.30	Cc1ccccc1CNC(=O)c1csc(CNC(=O)COc2ccc(OC(F)(F)F)cc2)n1 [Entry 98, N-[(2-methylphenyl)methyl]-2-({[({4-[(trifluoromethyl)oxy]phenyl}oxy)acetyl]amino}methyl)-1,3-thiazole-4-carboxamide]
6.30 to 7.30	CC(NC(=O)c1coc(CNC(=O)COc2ccc(OC(F)(F)F)cc2)n1)c1cccc2ccccc12 (centres unmarked) [Entry 99, N-(1-naphthalen-1-ylethyl)-2-({[({4-[(trifluoromethyl)oxy]phenyl}oxy)acetyl]amino}methyl)-1,3-oxazole-4-carboxamide]
6.30 to 7.30	CCCCC(CC)COCCCNC(=O)c1csc(CNC(=O)COc2ccc(OC(F)(F)F)cc2)n1 (centres unmarked) [Entry 100, N-{3-[(2-ethylhexyl)oxy]propyl}-2-({[({4-[(trifluoromethyl)oxy]phenyl}oxy)acetyl]amino}methyl)-1,3-thiazole-4-carboxamide]
6.30 to 7.30	CCc1ccc(NC(=O)NCc2nc(C(=O)NCCc3ccccc3F)cs2)cc1 [Entry 101, 2-[({[(4-ethylphenyl)amino]carbonyl}amino)methyl]-N-[2-(2-fluorophenyl)ethyl]-1,3-thiazole-4-carboxamide]
6.30 to 7.30	C[C@H](NC(=O)c1csc(CNC(=O)COc2ccc(OC(F)(F)F)cc2)n1)C(C)(C)C [Entry 102, 2-({[({4-[(trifluoromethyl)oxy]phenyl}oxy)acetyl]amino}methyl)-N-[(1S)-1,2,2-trimethylpropyl]-1,3-thiazole-4-carboxamide]
6.30 to 7.30	O=C(COc1ccc(OC(F)(F)F)cc1)NCc1nc(C(=O)N[C@H]2CCC[C@@H]2OCc2ccccc2)cs1 [Entry 103, N-{(1S,2S)-2-[(phenylmethyl)oxy]cyclopentyl}-2-({[({4-[(trifluoromethyl)oxy]phenyl}oxy)acetyl]amino}methyl)-1,3-thiazole-4-carboxamide]
6.30 to 7.30	O=C(COc1ccc(OC(F)(F)F)cc1)NCc1nc(C(=O)NCCc2ccccc2Cl)cs1 [Entry 104, N-[2-(2-chlorophenyl)ethyl]-2-({[({4-[(trifluoromethyl)oxy]phenyl}oxy)acetyl]amino}methyl)-1,3-thiazole-4-carboxamide]
6.30 to 7.30	O=C(COc1ccc(OC(F)(F)F)cc1)NCc1nc(C(=O)N[C@@H]2C[C@H]3CC[C@@H]2C3)cs1 [Entry 105, N-[(1R,2R,4S)-bicyclo[2.2.1]hept-2-yl]-2-({[({4-[(trifluoromethyl)oxy]phenyl}oxy)acetyl]amino}methyl)-1,3-thiazole-4-carboxamide]
6.30 to 7.30	COc1cccc(OC)c1CNC(=O)c1csc(CNC(=O)COc2ccc(OC(F)(F)F)cc2)n1 [Entry 106, N-{[2,6-bis(methyloxy)phenyl]methyl}-2-({[({4-[(trifluoromethyl)oxy]phenyl}oxy)acetyl]amino}methyl)-1,3-thiazole-4-carboxamide]

pIC50	SMILES
6.30 to 7.30	CN(CCCNC(=O)c1csc(CNC(=O)COc2ccc(OC(F)(F)F)cc2)n1)c1ccccc1 [Entry 107, N-{3-[methyl(phenyl)amino]propyl}-2-({[({4-[(trifluoromethyl)oxy]phenyl}oxy)acetyl]amino}methyl)-1,3-thiazole-4-carboxamide]
6.30 to 7.30	CC(NC(=O)c1csc(CNC(=O)COc2ccc(OC(F)(F)F)cc2)n1)c1ccccc1 (centres unmarked) [Entry 108, N-(1-phenylethyl)-2-({[({4-[(trifluoromethyl)oxy]phenyl}oxy)acetyl]amino}methyl)-1,3-thiazole-4-carboxamide]
6.30 to 7.30	O=C(COc1ccc(Br)cc1)NCc1nc(C(=O)NCCc2cccc(Cl)c2)cs1 [Entry 109, 2-[({[(4-bromophenyl)oxy]acetyl}amino)methyl]-N-[2-(3-chlorophenyl)ethyl]-1,3-thiazole-4-carboxamide]
6.30 to 7.30	CCc1ccc(NC(=O)NCc2nc(C(=O)NCc3ccccc3OC)cs2)cc1 [Entry 110, 2-[({[(4-ethylphenyl)amino]carbonyl}amino)methyl]-N-{[2-(methyloxy)phenyl]methyl}-1,3-thiazole-4-carboxamide]
6.30 to 7.30	CCc1ccc(OCC(=O)NCc2nc(C(=O)NCCc3cccc(Cl)c3)cs2)cc1 [Entry 111, N-[2-(3-chlorophenyl)ethyl]-2-[({[(4-ethylphenyl)oxy]acetyl}amino)methyl]-1,3-thiazole-4-carboxamide]
6.30 to 7.30	COc1ccc(OC)c(CNC(=O)c2csc(CNC(=O)COc3ccc(OC(F)(F)F)cc3)n2)c1 [Entry 112, N-{[2,5-bis(methyloxy)phenyl]methyl}-2-({[({4-[(trifluoromethyl)oxy]phenyl}oxy)acetyl]amino}methyl)-1,3-thiazole-4-carboxamide]
6.30 to 7.30	CCCCCCNC(=O)c1csc(CNC(=O)COc2ccc(OC(F)(F)F)cc2)n1 [Entry 113, N-hexyl-2-({[({4-[(trifluoromethyl)oxy]phenyl}oxy)acetyl]amino}methyl)-1,3-thiazole-4-carboxamide]
6.30 to 7.30	CC(C)c1ccc(CC(=O)NCc2nc(C(=O)NCCc3ccccc3F)cs2)cc1 [Entry 114, N-[2-(2-fluorophenyl)ethyl]-2-[({[4-(1-methylethyl)phenyl]acetyl}amino)methyl]-1,3-thiazole-4-carboxamide]
6.30 to 7.30	O=C(COc1ccc(OC(F)(F)F)cc1)NCc1nc(C(=O)NCc2c(F)cccc2F)cs1 [Entry 115, N-[(2,6-difluorophenyl)methyl]-2-({[({4-[(trifluoromethyl)oxy]phenyl}oxy)acetyl]amino}methyl)-1,3-thiazole-4-carboxamide]
6.30 to 7.30	O=C(COc1ccc(OC(F)(F)F)cc1)NCc1nc(C(=O)NCc2cccc(F)c2F)cs1 [Entry 116, N-[(2,3-difluorophenyl)methyl]-2-({[({4-[(trifluoromethyl)oxy]phenyl}oxy)acetyl]amino}methyl)-1,3-thiazole-4-carboxamide]
6.30 to 7.30	O=C(Cc1ccc2ccccc2c1)NCc1nc(C(=O)NCCc2cccc(Cl)c2)cs1 [Entry 117, N-[2-(3-chlorophenyl)ethyl]-2-{[(naphthalen-2-ylacetyl)amino]methyl}-1,3-thiazole-4-carboxamide]
6.30 to 7.30	COc1ccccc1CNC(=O)c1csc(CNC(=O)COc2ccc(C(C)C)cc2)n1 [Entry 118, 2-{[({[4-(1-methylethyl)phenyl]oxy}acetyl)amino]methyl}-N-{[2-(methyloxy)phenyl]methyl}-1,3-thiazole-4-carboxamide]
6.30 to 7.30	O=C(COc1ccc(OC(F)(F)F)cc1)NCc1nc(C(=O)NCc2cccc(Cl)c2)cs1 [Entry 119, N-[(3-chlorophenyl)methyl]-2-({[({4-[(trifluoromethyl)oxy]phenyl}oxy)acetyl]amino}methyl)-1,3-thiazole-4-carboxamide]
6.30 to 7.30	COc1ccc(CNC(=O)c2csc(CNC(=O)COc3ccc(OC(F)(F)F)cc3)n2)c(OC)c1 [Entry 120, N-{[2,4-bis(methyloxy)phenyl]methyl}-2-({[({4-[(trifluoromethyl)oxy]phenyl}oxy)acetyl]amino}methyl)-1,3-thiazole-4-carboxamide]
6.30 to 7.30	COc1cc(CNC(=O)c2csc(CNC(=O)COc3ccc(OC(F)(F)F)cc3)n2)cc(OC)c1 [Entry 121, N-{[3,5-bis(methyloxy)phenyl]methyl}-2-({[({4-[(trifluoromethyl)oxy]phenyl}oxy)acetyl]amino}methyl)-1,3-thiazole-4-carboxamide]
